From patent US20240352040A1, “CRYSTAL FORM OF RIPK1 INHIBITOR, ACID SALT THEREOF, AND CRYSTAL FORM OF ACID SALT THEREOF” (GENFLEET THERAPEUTICS (SHANGHAI) INC., priority 2021, published 2024)
≈ marks a conversion by molar mass, not a printed value. Where a name gives a salt, the structure may show the parent alone. Read-outs that look alike come from different tables or passages of the source. Each block holds one compound with its values, some of them ahead of it.

Assays:
[1] = Rough solubility in different solvent systems at room temperature; assay type: physicochemical
Description: The rough solubility of the free base anhydrous crystal form A of the compound of formula I obtained in Example 1 and the monohydrate crystal form C of the sulfate salt of the compound of formula I obtained in Example 4 was tested in different solvent systems at room temperature. About 2 mg of the solid sample was weighed into an HPLC vial, and then the corresponding solvent was gradually (50/50/200/700 μL in sequence) added thereto and shaken until the solid dissolved to clear. If the sample was still not dissolved to clear after the addition of 1 mL of solvent, no more solvent would be added. The rough solubility ranges calculated from the mass of the solid sample, the volume of the added solvent, and the observed dissolution phenomena are shown in Table 25-1 and Table 25-2.

[2] = as above; assay type: physicochemical; details: 50 °C, organic solvent or mixture, thermodynamic from solid, *Dissolve to clear at 50° C.
U937 cells = assay: Inhibition of TNF-α-induced programmed cell necrosis (necroptosis) in U937 cells, CellTiter-Glo; assay type: cell-based; details: U-937, human TNF-α + Q-VD-Oph, 48 hours, read-out: inhibitory IC50 against programmed necroptosis of cells induced by TNF-α
Description: The U937 cell line used in the following test examples was derived from ATCC, No.: CRL-1593.2, batch No.: 63479999, culture medium: RPMI-1640+10% FBS. The L929 cell line used in the following test examples was derived from ATCC, No.: CCL-1, batch No.: 70001022, culture medium: MEM+10% FBS+1% PS. The reagents used, their suppliers, and item numbers are as follows: RPMI-1640, Gibco, 11875-093; FBS, Gibco, 10099-141; Trypsin-EDTA, Gibco, 25200-072; PS, Gibco, 15140-122; CellTiter Glo, Promega, G7573; DMSO, VWR AMRESCO, 0231-500ML; TNF-α protein (human, recombinant), Peprotech, 300-01A; Q-VD-Oph, MCE, HY-12305; V-bottom plate, Corning, 3894; 384-well low flange white flat bottom microplate, Corning, 3570; RIPK1, Eurofins, 16-022; MOPS, BDH, 441644J; EDTA, Sigma, E5134; myelin basic protein, Sigma, M1891-25.00 MG; magnesium acetate, Merck, DU008026; ATP (non-radioactive labelled), Sigma, A-7699; ATP (radioactive labelled), Hartmann Analytic, DU008054; phosphoric acid, Metlab, DU003000; Z-VAD: Shanghai Twochem, YA02401.
(§1) The test compound was dissolved in DMSO and diluted to a series of concentration gradients with DMSO. […] After sufficient lysis reaction, the chemiluminescence readings were recorded by a microplate reader. The survival rate was calculated from the detection results using the equation as follows: SR (%)=(RLU compound−RLU blank)/(RLU high control−RLU blank)×100%. […]

RIPK1 = biological target: T1, RIPK1 (Homo sapiens, UniProt Q13546); assay: Inhibitory activity against RIPK1 enzyme, P33-ATP / MBP substrate radiometric assay; assay type: biochemical; details: 36 nM RIPK1, 0.33 mg/mL MBP, 155 μM P33 ATP, 2 hours room temperature
T1 construct: purchased Eurofins 16-022
T1 sequence (Q13546 1-671): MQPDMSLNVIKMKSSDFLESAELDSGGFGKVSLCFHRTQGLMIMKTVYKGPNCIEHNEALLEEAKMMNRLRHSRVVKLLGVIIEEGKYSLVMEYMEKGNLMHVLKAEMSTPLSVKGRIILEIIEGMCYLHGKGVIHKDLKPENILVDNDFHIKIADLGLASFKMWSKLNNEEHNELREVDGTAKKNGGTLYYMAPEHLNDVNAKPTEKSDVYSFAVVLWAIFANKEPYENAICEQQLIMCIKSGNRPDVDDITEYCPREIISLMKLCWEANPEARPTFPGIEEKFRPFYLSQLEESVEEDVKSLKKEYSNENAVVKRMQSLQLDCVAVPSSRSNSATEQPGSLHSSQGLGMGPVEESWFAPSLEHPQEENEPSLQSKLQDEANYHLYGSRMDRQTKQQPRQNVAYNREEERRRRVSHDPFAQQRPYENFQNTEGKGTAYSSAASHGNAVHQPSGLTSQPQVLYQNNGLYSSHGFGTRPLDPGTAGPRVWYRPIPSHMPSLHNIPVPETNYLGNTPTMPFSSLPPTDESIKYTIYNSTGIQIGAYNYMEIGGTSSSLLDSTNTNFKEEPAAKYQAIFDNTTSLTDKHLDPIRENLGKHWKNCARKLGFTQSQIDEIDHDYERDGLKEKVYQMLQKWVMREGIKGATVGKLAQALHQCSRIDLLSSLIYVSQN
Description: (§2) The U937 cell line used in the following test examples was derived from ATCC, No.: CRL-1593.2, batch No.: 63479999, culture medium: RPMI-1640+10% FBS. The L929 cell line used in the following test examples was derived from ATCC, No.: CCL-1, batch No.: 70001022, culture medium: MEM+10% FBS+1% PS. […]
The test compound was dissolved in DMSO to prepare a 10 mM stock solution, and diluted 3.16-fold with DMSO to a series of gradient concentrations. […] The final reaction system was detected using a liquid scintillation counter after treatment. The result after detection was subtracted from the blank control and converted to the percentage of activity compared with the reading of the control group. […]

L929 cells = assay: Inhibition of TNF-α-induced programmed necrosis of L929 cells, CellTiter-Glo; assay type: cell-based; details: 30 ng/mL mouse TNF-α + 15 μM Z-VAD, 6 hours, read-out: inhibitory IC50 against programmed necroptosis of cells induced by TNF-α
Description: as §2
as §1, with “The” for “The test”, “DMSO to prepare a 10 mM stock solution” for “DMSO”, “diluted 3.16-fold with DMSO” for “diluted”, “gradient concentrations.” for “concentration gradients with DMSO.”

[3] = Suspension competition test between crystal forms of the sulfate salt (anhydrous/hydrate transformation relationship); assay type: physicochemical
Description: A suspension competition test between the anhydrous crystal form A of the sulfate salt obtained in Example 5 and the anhydrous crystal form D of the sulfate salt obtained in Example 19 was set up, including conditions of 5° C., 25° C., and 50° C. in methanol and 25° C. in ACN. (Test numbers are from A1 to A4)
A suspension competition test between the monohydrate crystal form C of the sulfate salt obtained in Example 4 and the anhydrous crystal form A of the sulfate salt obtained in Example 5 was set up at room temperature, including a suspension competition test in ACN/H2O (aw=0/0.2/0.4/0.6/0.8) of different water activities at room temperature. (Test numbers are from B1 to B5)
The specific steps are as follows: 1) saturated solutions of sulfate salt in different solvent systems at room temperature were prepared; 2) equal mass of the corresponding samples of crystal form of sulfate salt (about 5 mg each) were added to 1 mL of saturated solution to form a suspension, respectively; 3) the suspension was magnetically stirred at corresponding temperature; 4) the remaining solid was separated and tested by XRPD.

[4] = Hygroscopicity by dynamic vapor sorption (DVS) at 25° C.; assay type: physicochemical
Description: (3) Dynamic vapor sorption (DVS): Dynamic vapor sorption (DVS) curves were collected on DVS Intrinsic from SMS (surface measurement systems). The relative humidity at 25° C. was corrected using the deliquescence points of LiCl, Mg(NO3)2, and KCl.
The hygroscopicity of the sample of the monohydrate crystal form C of the sulfate salt obtained in […] was evaluated through the DVS test from 0% RH to […] at 25° C.

[5] = Solid state stability (XRPD crystal form, HPLC purity); assay type: physicochemical; details: for Purity / Purity/initial purity / Initial purity: HPLC; for Crystal form transition: XRPD; for Initial purity: before the stability test, monohydrate crystal form C of sulfate salt
Description: (6) High performance liquid chromatography (HPLC): Purity and solubility in the test were determined by Agilent 1260 high performance liquid chromatograph, and the analytical conditions are shown in Table 4.
Appropriate amounts of the samples of the monohydrate crystal form C of the sulfate salt […], and then placed for one week in an open state of 40° C./75% RH. Solid samples separated under different conditions were respectively subjected to XRPD test to evaluate the transition of crystal forms, and subjected to HPLC test to evaluate purity and chemical stability.

[6] = 40° C./75% RH/1 week, open, listed as Example 4
[7] = 40° C./75% RH/1 week, open, listed as Example 9
[8] = 60° C./sealed/1 week, listed as Example 4
[9] = 60° C./sealed/1 week, listed as Example 9
[10] = sealed 24 hours at 60° C., open one week at 40° C./75% RH, two batches

Structure (SMILES): Nc1nc2cc(-c3cnc4c(c3)C(=O)N(Cc3cc(OC(F)(F)F)ccc3F)CC4)ccn2n1
solubility ([1]; dimethyl sulfoxide, organic solvent or mixture, thermodynamic from solid, Dimethyl sulfoxide, read-out: Solubility): > 42000 µg/mL | solubility ([2]; isopropanol): < 2400 µg/mL

Structure (SMILES): Nc1nc2cc(-c3cnc4c(c3)C(=O)N(Cc3cc(OC(F)(F)F)ccc3F)CC4)ccn2n1 [compound of formula I, 3-(2-amino-[1,2,4]triazolo[1,5-a]pyridin-7-yl)-6-(2-fluoro-5-(trifluoromethoxy)benzyl)-7,8-dihydro-1,6-naphthyridin-5(6H)-one]
IC50 (U937 cells): 6 nM | IC50 (RIPK1): 39 nM | IC50 (L929 cells): 3 nM

Structure (SMILES): Nc1nc2cc(-c3cnc4c(c3)C(=O)N(Cc3cc(OC(F)(F)F)ccc3F)CC4)ccn2n1 [free base anhydrous crystal form A, 3-(2-amino-[1,2,4]triazolo[1,5-a]pyridin-7-yl)-6-(2-fluoro-5-(trifluoromethoxy)benzyl)-7,8-dihydro-1,6-naphthyridin-5(6H)-one]
solubility ([1]; Methanol): S < 1.8 mg/mL | solubility ([1]; acetone, organic solvent or mixture, thermodynamic from solid, Acetone, read-out: Solubility): < 1800 µg/mL | solubility ([1]; acetonitrile, organic solvent or mixture, thermodynamic from solid, Acetonitrile, read-out: Solubility): < 1900 µg/mL | solubility ([1]; ethanol, organic solvent or mixture, thermodynamic from solid, Ethanol, read-out: Solubility): < 2200 µg/mL | solubility ([1]; isopropanol, organic solvent or mixture, thermodynamic from solid, Isopropanol, read-out: Solubility): < 1900 µg/mL | solubility ([1]; n-heptane, organic solvent or mixture, thermodynamic from solid, n-Heptane, read-out: Solubility): < 1700 µg/mL | solubility ([1]; water, thermodynamic from solid, Water, read-out: Solubility): < 2100 µg/mL | solubility ([2]; dimethyl sulfoxide): 7700 to 23000 µg/mL (≈ 16.3 to 48.7 mM)

Structure (SMILES): Nc1nc2cc(-c3cnc4c(c3)C(=O)N(Cc3cc(OC(F)(F)F)ccc3F)CC4)ccn2n1 [monohydrate crystal form C of the sulfate salt]
solubility ([1]; Acetone): S < 2.4 mg/mL | solubility ([1]; Acetonitrile): S < 2.4 mg/mL | solubility ([1]; Water): S < 2.4 mg/mL | solubility ([1]; n-Heptane): S < 2.3 mg/mL | thermodynamic stability range under different water activities ([3]; room temperature): relatively wide | hygroscopicity assessment ([4]; DVS, 25° C.): slightly hygroscopic | hygroscopic weight gain ([4]; DVS, 25° C./80% RH): about 0.2700 | crystal form transition after the DVS test (XRPD) ([4]; after DVS test): no crystal form transition | Purity [5, 6]: 99.46% | Purity/initial purity [5, 6]: 99.98% | Purity [5, 7]: 99.45% | Purity/initial purity [5, 7]: 99.93% | Crystal form transition ([5]; 40° C./75% RH/1 week, open): No | Purity [5, 8]: 99.47% | Purity/initial purity [5, 8]: 99.99% | Purity [5, 9]: 99.39% | Purity/initial purity [5, 9]: 99.87% | Crystal form transition ([5]; 60° C./sealed/1 week): No | Initial purity ([5]; listed as Example 4): 99.48% | Initial purity ([5]; listed as Example 9): 99.52% | change in HPLC purity [5, 10]: do not show any significant decrease | change of crystal form (XRPD) [5, 10]: does not change

solid form obtained after stirring in water ([3]; water, water activity of about 1): free base crystal form A was obtained
Structure (SMILES): O=S(=O)(O)O [sulfate]
